Experimental data taken from patent US20110319339A1, “NEUROTENSIN-DERIVED BRANCHED PEPTIDES AND USES THEREOF” (priority 2008, published 2011).

How the values were obtained:
[1] = system: HT29 tumors; experiment: Tumor growth reduction in mice; format: in vivo, CD-1 female nude mice; settings: given six times, dose of 3 μg/kg, time-frame of 10 days
Procedure: In details, CD-1 female nude mice (Charles River Laboratories, Inc.), 5 to 6 weeks of age (mean weight, 20 g), were injected s.c. in the right flank with 1×10^6 HT29 cells. When tumors reached a diameter of 3 to 4 mm (5 days after tumor inoculation) mice were randomly divided into groups (four mice per group) and repeatedly injected in the tail vein (0, 30, 70, 140, 190, 240 hours post first injection) with 500 μL of the following solutions in 0.9% NaCl: (a) 1 mg/mL NT(1-13)4-5FdU (3.05 μmol/kg); (b) 30 μg/mL 5FdU (3.05 μmol/kg); and (c) 0.9% NaCl.
Tumor volumes were measured daily with a caliper using the following formula: volume=length*width2*π/6. 21 days after tumor inoculation, ie 6 days after the last treatment, mice were sacrificed, tumors, removed and weighted. […] Statistical analysis was done using Student's t test (p<0.05).

[2] = system: PC-3; experiment: Cytotoxicity of drug-conjugated NT4, MTT growth inhibition; format: cell-based, human
Procedure: (§1) Cells were grown without changing the medium for days. Growth inhibition was assessed by 3-(4,5-dimethylthiazol-2-yl)-2,5-diphenyltetrazolium bromide. EC50 values were calculated by non-linear regression analysis using GraphPaD prism 3.02 software.

[3] = target: NT receptor
[4] = system: colon tumors and healthy tissues from the same patient; experiment: Binding of fluorophore-conjugated NT4 to human tumor surgical samples versus healthy tissue, confocal fluorescence; settings: any tissue sample (colon and pancreas)
Procedure: Each step was followed by washing with TBS. […] Each step was followed by washing with TBS. […] Analogue monomeric peptides were assayed for comparison. […] All images were processed using the ImageJ software (NIH).

[5] = Classification of functionalized branched peptides as fast or slow/non releasing; settings: ability to release the functional unit from the carrier peptide
[6] = system: HT-29; experiment: Cytotoxicity of drug-conjugated NT4, MTT growth inhibition; format: cell-based, human; settings: HT29, best EC50 values, 0.15 to 30 μmol/L
Procedure: as §1

[7] = system: HT-29, PANC-1 and PC-3 tumor cell lines; experiment: Cytotoxicity of drug-conjugated NT4, statements on the three cell lines together; format: cell-based, human
Procedure: Cells were grown without changing the medium for days.
5-FdU, Monastrol and CBTST were fast released from the adducts. […] The additional washing was performed in order to avoid free drug to diffuse inside the cells during the following six days.

[8] = compared to NT

Molecule: O=c1[nH]c(=O)n([C@H]2C[C@H](O)[C@@H](CO)O2)cc1F [5-FdU, 5-fluoro-2′-deoxyuridine]
- inhibition of tumor growth [1]: 10%
- sensitivity of PC-3 cells to the drug [2]: not affected

Molecule: O=C(O)CCCc1ccc(N(CCCl)CCCl)cc1 [CLB, chlorarnbucil]
- sensitivity of PC-3 cells to the drug [2]: not affected

Molecule: CN(Cc1cnc2nc(N)nc(N)c2n1)c1ccc(C(=O)N[C@@H](CCC(=O)O)C(=O)O)cc1 [MTX, methotrexate]
- sensitivity of PC-3 cells to the drug [2]: not affected

Molecule: NT4-peg-Biotin
- IC50 values ([3]; compared to that of NT4): comparable

Molecule: NT(1-13)4
- binding to tissue sample compared to NT(8-13)4 [4]: identical

Molecule: NT(8-13)4-beta-Ala-Biotin
- binding activity to NT receptor ([3]; compared to NT(8-13)4): loose binding activity

Molecule: NT(8-13)4-betaAla-K(PEG-Chlorambucil) [NT4(8-13)-CLB]
- releasing class of the adduct [5]: slow releasing
- EC50 [6]: 1900 nM

Molecule: NT(8-13)-betaAla-K(PEG-5-fluorodeoxyuridine) [NT4(8-13)-5-FdU]
- EC50 [6]: 330 nM

Molecule: NT(8-13)-betaAla-K(PEG-6-mercaptopurine) [NT4(8-13)-6-MP]
- activity compared to the parent free drug [7]: no improvement

Molecule: NT(8-13)-betaAla-K(PEG-Monastrol) [NT4(8-13)-Mon]
- activity compared to the parent free drug [7]: no improvement

Molecule: NT(8-13)-betaAla-K(PEG-Tirapazamine) [NT4(8-13)-TPZ]
- releasing class of the adduct [5]: slow releasing
- EC50 ([2]; PC3, best EC50 values, 0.15 to 30 μmol/L, MTT): 140 nM

Molecule: QHWSYGLRPG [LHRH]
- in vitro binding profiles [8]: lower
